Test results: US20160237059A1, “HETEROCYCLIC SUBSTITUTED TRIFLUOROMETHYL PYRIMIDINONES AND THEIR USE” (BAYER PHARMA AKTIENGESELLSCHAFT, priority 2013, published 2016)

Key:
Type in all cases: cell-based
human CCR2 = target: T1, human CCR2 (Homo sapiens, UniProt P41597); assay: Functional Ca2+ release test (B-1); conditions: Chem-1 cell line transfected with human CCR2; 50% inhibition of the MCP-1 effect, MCP-1 at EC50 (about 5 nM); in some cases means of several determinations
T1 construct: host or cells: Chem-1 cell line
T1 sequence (P41597 1-360 isoform P41597-2): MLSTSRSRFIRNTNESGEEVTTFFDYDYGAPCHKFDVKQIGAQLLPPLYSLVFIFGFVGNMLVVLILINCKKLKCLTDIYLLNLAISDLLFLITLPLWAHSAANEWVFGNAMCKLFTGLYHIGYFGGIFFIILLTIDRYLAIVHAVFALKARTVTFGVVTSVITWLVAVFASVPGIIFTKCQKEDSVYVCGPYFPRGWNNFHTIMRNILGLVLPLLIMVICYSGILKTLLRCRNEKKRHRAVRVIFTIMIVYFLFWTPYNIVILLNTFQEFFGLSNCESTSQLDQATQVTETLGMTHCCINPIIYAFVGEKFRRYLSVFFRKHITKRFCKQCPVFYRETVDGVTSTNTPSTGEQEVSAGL
Method in brief: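 Chem-1 cells expressing human CCR2, loaded with Fluo-4 for 60 min at 37° C, were preincubated 10 min with compound (10-point, 1:3.16 dilutions), then stimulated with MCP-1 at its predetermined EC50 (about 5 nM). Ca2+ release was monitored for 120 s. IC50 came from a 4-parameter Hill fit.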

murine CCR2 [1] = target: T2, murine CCR2 (Mus musculus, UniProt P51683); assay: Functional β-arrestin recruiting test with human MCP-1 (B-2a); conditions: U2OS β-arrestin cell line transfected with murine CCR2; agonist human MCP-1 at EC50 (about 3 nM); in some cases means of several determinations
T2 construct: host or cells: U2OS β-arrestin cell line
T2 sequence (P51683 whole entry): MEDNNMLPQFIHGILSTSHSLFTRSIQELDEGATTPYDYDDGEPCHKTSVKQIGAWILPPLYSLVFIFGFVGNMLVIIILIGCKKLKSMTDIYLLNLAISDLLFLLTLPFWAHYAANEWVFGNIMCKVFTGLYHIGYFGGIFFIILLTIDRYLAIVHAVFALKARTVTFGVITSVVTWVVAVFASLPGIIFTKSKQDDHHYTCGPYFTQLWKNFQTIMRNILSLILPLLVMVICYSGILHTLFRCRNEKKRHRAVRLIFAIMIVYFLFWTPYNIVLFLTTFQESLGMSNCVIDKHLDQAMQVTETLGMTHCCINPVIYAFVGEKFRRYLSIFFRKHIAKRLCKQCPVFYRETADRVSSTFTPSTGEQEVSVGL
Method in brief: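 Antagonist mode in U2OS cells expressing murine CCR2, read by PathHunter β-galactosidase complementation luminescence. Cells pre-incubated 10 min with 10-point compound dilutions (1:3.16 steps), then stimulated with human MCP-1 at its EC50 (usually about 3 nM) for 90 min at 37° C.; IC50 from 4-parameter logistic fit.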

murine CCR2 [2] = target: T2, murine CCR2; assay: Functional β-arrestin recruiting test with murine MCP-1 (B-2b); conditions: U2OS β-arrestin cell line transfected with murine CCR2; agonist murine MCP-1; in some cases means of several determinations
Method in brief: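 In a PathHunter β-galactosidase complementation assay, U2OS cells expressing murine CCR2 were preincubated 10 min with compound (10-point, 1:3.16 dilutions), then challenged with murine MCP-1 at its predetermined EC50 for 90 min at 37 °C. Luminescence was read after 60 min, and IC50 was fitted with a 4-parameter Hill function.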

| SMILES | IC50 (human CCR2) [nM] | IC50 (murine CCR2 [1]) [nM] | IC50 (murine CCR2 [2]) [nM] |
| --- | --- | --- | --- |
| O=c1[nH]c(-c2n[nH]cc2Cl)nc(C(F)(F)F)c1Oc1ccc(Cl)c(C(F)(F)F)c1 [Example 77, 2-(4-chloro-1H-pyrazol-3-yl)-5-[4-chloro-3-(trifluoromethyl)phenoxy]-6-(trifluoromethyl)pyrimidin-4(3H)-one] | 2 | 6.3 | 18 |
| O=c1[nH]c(-c2ncon2)nc(C(F)(F)F)c1Oc1ccc(Cl)c(C(F)(F)F)c1 [Example 78, 5-[4-Chloro-3-(trifluoromethyl)phenoxy]-2-(1,2,4-oxadiazol-3-yl)-6-(trifluoromethyl)pyrimidin-4(3H)-one] | 3.7 | 16 | 50 |
| Cc1nc(-c2nc(C(F)(F)F)c(Oc3ccc(Cl)c(Cl)c3)c(=O)[nH]2)no1 [Example 83] | 20 | 79 | 308 |
| O=c1[nH]c(Cc2ccno2)nc(C(F)(F)F)c1Oc1ccc(Cl)c(Cl)c1 [Example 95, 5-(3,4-dichlorophenoxy)-2-(1,2-oxazol-5-ylmethyl)-6-(trifluoromethyl)pyrimidin-4(3H)-one] | 27 | 77 | 449 |
| Nc1cnn(-c2nc(C(F)(F)F)c(Cc3ccc(Cl)c(C(F)(F)F)c3)c(=O)[nH]2)c1 [Example 107, 2-(4-Amino-1H-pyrazol-1-yl)-5-[4-chloro-3-(trifluoromethyl)benzyl]-6-(trifluoromethyl)pyrimidin-4(3H)-one] | 2.4 | 28 | 53 |
| Nc1cnn(-c2nc(C(F)(F)F)c(Oc3ccc(Cl)c(C(F)(F)F)c3)c(=O)[nH]2)c1 [Example 108, 2-(4-amino-1H-pyrazol-1-yl)-5-[4-chloro-3-(trifluoromethyl)phenoxy]-6-(trifluoromethyl)pyrimidin-4(3H)-one] | 0.8 | 2.7 | 27 |
| Nc1ccc(-c2nc(C(F)(F)F)c(Oc3ccc(Cl)c(C(F)(F)F)c3)c(=O)[nH]2)nc1 [Example 113, 2-(5-Aminopyridin-2-yl)-5-[4-chloro-3-(trifluoromethyl)phenoxy]-6-(trifluoromethyl)pyrimidin-4(3H)-one] | 0.4 | 8.3 | 16 |
| O=c1[nH]c(-c2ncon2)nc(C(F)(F)F)c1Oc1ccc(Cl)c(Cl)c1 [compound 79, 5-(3,4-Dichlorophenoxy)-2-(1,2,4-oxadiazol-3-yl)-6-(trifluoromethyl)pyrimidin-4(3H)-one] | 4.2 | 53 | 195 |
